How the values were obtained:
[1] = tested on: MV4-11 cells; test: MV4-11 cellular proliferative assay, Assay Format B (CTG 2.0, 168 h); type: cell-based; conditions: Homo sapiens, 168 h (7 days), CTG 2.0, read-out: IC50 (MV4-11 cellular proliferative assay, Assay format B)
Procedure: MV4-11 cells at a confluency of ~50-80% was used for cell growth assay. 600 cells/well in a 384-well opaque cell culture plate (6007680; Perkin Elmer) were seeded in 40 μL of complete medium (IMDM+10% FBS+1X Penicillin-Streptomycin). Cells were incubated overnight at 37° C., 5% CO2. 10 mM DMSO stocks were prepared, cells were treated with 10 concentrations of test compounds starting from 1 uM or 100 nM, 3-fold dilution in 10 uL (5×concentration) of complete medium. Final DMSO concentration was 0.3%. Culture plates were centrifuged at 40×g, 30s. Cells were incubated with compounds for 168 h (7 days). After 7 days, 20 uL CTG 2.0 reagent (G9242; Promega) was added per well and luminescence reading was taken in Envision Xcite 2105 multimode plate reader. Data was analyzed in GraphPad Prism 10.0 and data was shown as % viability with respect to DMSO control and dose-response curves were generated using four parameter logistic regression. Assay quality was determined by z-factor calculation using positive and negative controls.

[2] = molecular target: T1, MLLT1 (Homo sapiens, UniProt Q03111); test: MLLT1 degradation assay in MV4-11 cells (JESS chemiluminescent detection), three concentrations, 24 h; type: cell-based; conditions: with respect to DMSO control
T1 construct: host or cells: MV4-11
T1 sequence (Q03111 1-559): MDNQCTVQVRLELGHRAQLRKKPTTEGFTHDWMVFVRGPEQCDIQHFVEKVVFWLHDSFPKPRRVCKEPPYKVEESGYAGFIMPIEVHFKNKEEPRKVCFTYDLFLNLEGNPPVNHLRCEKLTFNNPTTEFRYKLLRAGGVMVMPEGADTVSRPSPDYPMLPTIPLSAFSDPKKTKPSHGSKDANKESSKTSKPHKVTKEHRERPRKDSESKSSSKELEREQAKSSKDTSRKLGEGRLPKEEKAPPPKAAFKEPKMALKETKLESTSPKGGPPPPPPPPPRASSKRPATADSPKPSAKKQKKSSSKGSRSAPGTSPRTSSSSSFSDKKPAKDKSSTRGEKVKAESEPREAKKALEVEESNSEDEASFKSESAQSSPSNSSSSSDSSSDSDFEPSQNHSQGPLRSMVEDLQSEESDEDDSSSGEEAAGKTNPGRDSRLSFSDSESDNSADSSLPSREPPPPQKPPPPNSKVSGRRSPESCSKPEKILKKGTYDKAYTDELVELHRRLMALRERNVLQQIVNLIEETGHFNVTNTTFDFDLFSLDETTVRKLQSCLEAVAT
Outline: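 Read-out is % MLLT1 degradation versus DMSO, from band peak areas on a JESS chemiluminescent system. Cells (MV4-11) were exposed for 24 h at 37° C to three compound levels, 10, 100 and 1000 nM, in 0.1% DMSO.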

Row | SMILES | IC50 [1] [nM] | MLLT1% Degradation @ 0.01 μM [2] | MLLT1% Degradation @ 0.1 μM [2] | MLLT1% Degradation @ 1 μM [2]
1 | CN1CCC[C@@H]1c1cc2cnc(NC(=O)c3ccc(CCCC4CCN(c5cccc6c5CN(C5CCC(=O)NC5=O)C6=O)CC4)cc3)cc2[nH]1 (mixture of isomers) [Example 76, 4-(3-(1-(2-(2,6-dioxopiperidin-3-yl)-1-oxoisoindolin-4-yl)piperidin-4-yl)propyl)-N-(2-((R)-1-methylpyrrolidin-2-yl)-1H-pyrrolo[3,2-c]pyridin-6-yl)benzamide] | ≤ 100 | A (Category A: A ≥ 75% degradation) | A (Category A: A ≥ 75% degradation) | A (Category A: A ≥ 75% degradation)
2 | CN1CCC[C@@H]1c1cc2cnc(NC(=O)c3ccc(OCCC4CCN(c5cccc6c5CN(C5CCC(=O)NC5=O)C6=O)CC4)cc3)cc2[nH]1 (mixture of isomers) [Example 79, 4-(2-(1-(2-(2,6-dioxopiperidin-3-yl)-1-oxoisoindolin-4-yl)piperidin-4-yl)ethoxy)-N-(2-((R)-1-methylpyrrolidin-2-yl)-1H-pyrrolo[3,2-c]pyridin-6-yl)benzamide] | ≤ 100 | A (Category A: A ≥ 75% degradation) | A (Category A: A ≥ 75% degradation) | A (Category A: A ≥ 75% degradation)
3 | CN1CCC[C@@H]1c1cc2cnc(NC(=O)c3ccc(N4CCN(CC5CCN(c6cccc7c6CN(C6CCC(=O)NC6=O)C7=O)CC5)CC4)cc3)cc2[nH]1 (mixture of isomers) [Example 116, 4-(4-((1-(2-(2,6-dioxopiperidin-3-yl)-1-oxoisoindolin-4-yl)piperidin-4-yl)methyl)piperazin-1-yl)-N-(2-((R)-1-methylpyrrolidin-2-yl)-1H-pyrrolo[3,2-c]pyridin-6-yl)benzamide] | ≤ 100 | B (Category B: 50% ≤ B < 75% degradation) | A (Category A: A ≥ 75% degradation) | A (Category A: A ≥ 75% degradation)
4 | CN1CCC[C@@H]1c1cc2cnc(NC(=O)c3ccc(OC4CCN(CC5CCN(c6cccc7c6CN(C6CCC(=O)NC6=O)C7=O)CC5)CC4)cc3)cc2[nH]1 (mixture of isomers) [Example 121, 4-((1-((1-(2-(2,6-dioxopiperidin-3-yl)-1-oxoisoindolin-4-yl)piperidin-4-yl)methyl)piperidin-4-yl)oxy)-N-(2-((R)-1-methylpyrrolidin-2-yl)-1H-pyrrolo[3,2-c]pyridin-6-yl)benzamide] | ≤ 100 | A (Category A: A ≥ 75% degradation) | A (Category A: A ≥ 75% degradation) | A (Category A: A ≥ 75% degradation)
5 | CN1CCC[C@@H]1c1cc2cnc(NC(=O)c3ccc(CCCCC#Cc4cccc5c4CN([C@H]4CCC(=O)NC4=O)C5=O)cc3)cc2[nH]1 (relative stereo) [Example 104, 4-(6-(2-((rel-S)-2,6-dioxopiperidin-3-yl)-1-oxoisoindolin-4-yl)hex-5-yn-1-yl)-N-(2-((R)-1-methylpyrrolidin-2-yl)-1H-pyrrolo[3,2-c]pyridin-6-yl)benzamide] | ≤ 100 | – | – | –
6 | CN1CCC[C@@H]1c1cc2cnc(NC(=O)c3ccc(CCCCC#Cc4cccc5c4CN([C@@H]4CCC(=O)NC4=O)C5=O)cc3)cc2[nH]1 (relative stereo) [Example 105, 4-(6-(2-((rel-R)-2,6-dioxopiperidin-3-yl)-1-oxoisoindolin-4-yl)hex-5-yn-1-yl)-N-(2-((R)-1-methylpyrrolidin-2-yl)-1H-pyrrolo[3,2-c]pyridin-6-yl)benzamide] | ≤ 100 | – | – | –
7 | CN1CCC[C@@H]1c1cc2cnc(NC(=O)c3ccc(CCCC#Cc4ccc5c(c4)C(=O)N(C4CCC(=O)NC4=O)C5)cc3)cc2[nH]1 (stereo partly drawn) [Example 225, 4-(5-(2-(2,6-dioxopiperidin-3-yl)-3-oxoisoindolin-5-yl)pent-4-yn-1-yl)-N-(2-((R)-1-methylpyrrolidin-2-yl)-1H-pyrrolo[3,2-c]pyridin-6-yl)benzamide] | – | C (Category C: 25% ≤ C < 50% degradation) | C (Category C: 25% ≤ C < 50% degradation) | C (Category C: 25% ≤ C < 50% degradation)
8 | CN1CCC[C@@H]1c1cc2cnc(NC(=O)c3ccc(N4CC[C@@H](CC#Cc5cccc6c5CN(C5CCC(=O)NC5=O)C6=O)C4)nc3)cc2[nH]1 (stereo partly drawn) [Example 226, 6-((3R)-3-(3-(2-(2,6-dioxopiperidin-3-yl)-1-oxoisoindolin-4-yl)prop-2-yn-1-yl)pyrrolidin-1-yl)-N-(2-((R)-1-methylpyrrolidin-2-yl)-1H-pyrrolo[3,2-c]pyridin-6-yl)nicotinamide] | – | B (Category B: 50% ≤ B < 75% degradation) | B (Category B: 50% ≤ B < 75% degradation) | C (Category C: 25% ≤ C < 50% degradation)
9 | CN1CCC[C@@H]1c1cc2cnc(NC(=O)c3ccc(OC4CN(CCC5CCN(c6ccc7c(c6)C(=O)N(C6CCC(=O)NC6=O)C7=O)CC5)C4)cc3)cc2[nH]1 (stereo partly drawn) [Example 227, 4-((1-(2-(1-(2-(2,6-dioxopiperidin-3-yl)-1,3-dioxoisoindolin-5-yl)piperidin-4-yl)ethyl)azetidin-3-yl)oxy)-N-(2-((R)-1-methylpyrrolidin-2-yl)-1H-pyrrolo[3,2-c]pyridin-6-yl)benzamide] | – | D (Category D: D < 25% degradation) | C (Category C: 25% ≤ C < 50% degradation) | C (Category C: 25% ≤ C < 50% degradation)
10 | CN1CCC[C@@H]1c1cc2cnc(NC(=O)c3ccc(N4CCC(OCC5CCN(c6ccc7c(c6)CN(C6CCC(=O)NC6=O)C7=O)CC5)CC4)nc3)cc2[nH]1 (stereo partly drawn) [Example 228, 6-(4-((1-(2-(2,6-dioxopiperidin-3-yl)-1-oxoisoindolin-5-yl)piperidin-4-yl)methoxy)piperidin-1-yl)-N-(2-((R)-1-methylpyrrolidin-2-yl)-1H-pyrrolo[3,2-c]pyridin-6-yl)nicotinamide] | – | C (Category C: 25% ≤ C < 50% degradation) | D (Category D: D < 25% degradation) | D (Category D: D < 25% degradation)
11 | CN1CCC[C@@H]1c1[nH]c2cc(NC(=O)c3ccc(OCCC4CCN(c5cccc6c5CN(C5CCC(=O)NC5=O)C6=O)CC4)c(F)c3)ncc2c1Cl (stereo partly drawn) [Example 229, N-(3-chloro-2-((R)-1-methylpyrrolidin-2-yl)-1H-pyrrolo[3,2-c]pyridin-6-yl)-4-(2-(1-(2-(2,6-dioxopiperidin-3-yl)-1-oxoisoindolin-4-yl)piperidin-4-yl)ethoxy)-3-fluorobenzamide] | – | A (Category A: A ≥ 75% degradation) | A (Category A: A ≥ 75% degradation) | A (Category A: A ≥ 75% degradation)
12 | CN1CCC[C@@H]1c1[nH]c2cc(NC(=O)c3ccc(CCCC4CCN(c5cccc6c5CN([C@H]5CCC(=O)NC5=O)C6=O)CC4)cc3)ncc2c1Cl [Example 233, N-(3-chloro-2-((R)-1-methylpyrrolidin-2-yl)-1H-pyrrolo[3,2-c]pyridin-6-yl)-4-(3-(1-(2-((S)-2,6-dioxopiperidin-3-yl)-1-oxoisoindolin-4-yl)piperidin-4-yl)propyl)benzamide] | – | A (Category A: A ≥ 75% degradation) | A (Category A: A ≥ 75% degradation) | A (Category A: A ≥ 75% degradation)

From patent publication US20260191968A1, “PROTAC DEGRADERS OF MLLT1 AND/OR MLLT3” (DARK BLUE THERAPEUTICS LTD, priority 2024, published 2026)
